Each block holds one molecule with its values, some of them ahead of it. Starred links: 1 amine or outer side, 2 acyl side, 3 side chain; linkers in the order of their positions; H or OH if unused. Non-standard residues stand in square brackets, D forms with d. Residues, ends and D or L forms follow the SMILES beside them. X3 = CC(C)C[C@H](N[*:1])C(=S)N[C@H](CC(C)C)C(=O)[*:2]; NMeL = CN[C@@H](CC(C)C)C(=O)O
Assays:
[1] = rat, in vivo, po, 10 mg/kg
Description: (§1) All animals were housed individually in the animal facility at Anthem Biosciences Pvt. Ltd and were acclimatized for 3 days. All animals were fasted overnight before dosing, whereas access to water was provided ad libitum. Peptides were administered orally and via s.c. route and blood samples were collected at different time points through a jugular vein catheter.

[2] = HDX of amide protons by NMR in CDCl3:CD3OD (8:2)
Description: (§2) As hydrogen bonding and solvation of NH groups play an important role in the permeability of macrocycles, we determined the solvent accessibility of individual amide protons in 10 and 10a–10f by hydrogen-deuterium exchange (HDX) through NMR spectroscopy (Figs. 2a–c).
(§3) Spectra were recorded on a Bruker AV 500 MHz spectrometer at 25 °C.

in vitro [3] = conditions: human, microsomes
Description: (§4) A stability assessment of the peptides was done in simulated gastric (SGF) and intestinal (SIF) fluids and human liver microsomes. The degradation kinetics of the aliquoted samples at desired time points were analyzed through RP-HPLC.

Caco-2 cells = assay: in vitro; assay type: in vitro ADME, human; conditions: Caco-2
Description: (§5) The Caco-2 cell (HTB-37^TM from ATCC, procured from NCCS, Pune) monolayer was washed and pre-incubated at 37 °C and 5% CO2 for 30 min with HBSS-HEPES buffer containing 1% DMSO prior to experimentation. The assay was performed 21 days post-seeding of cells. TEER values were measured before starting and after the completion of the assay. Acceptor and donor well concentrations of the peptides and controls were assessed through LC-MS/MS.

in vitro [4] = assay type: in vitro ADME, human
Description: as §5

in vitro [5] = conditions: both, human, plasma
Description: (§6) Blood was freshly drawn from three healthy adults, two male and one person of 26–28 year old. […] The plasma was separated by centrifugation. […] For checking metabolic stability, the required volume of plasma was pre-incubated at 37 °C prior to the experiment for 2 min, followed by spiking with the peptides. At different time points, plasma was aliquoted. The supernatant was separated and used for RP-HPLC quantification. Rapid Equilibrium Dialysis (RED) assay was performed to assess the plasma protein binding of the peptides following the supplier’s protocol.

[6] = HDX of amide protons by NMR in DMSO-d6:D2O (8:2); conditions: HDX by NMR, 20% D2O in DMSO-d6
Description: as §2, §3

[7] = PAMPA passive permeability; assay type: in vitro ADME; conditions: for Papp: Pe Avg;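 as to all read-outs here: passive permeability across an artificial membrane in 96-well pre-coated PAMPA plates, which lack transporters and efflux systems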
Description: Encouraged by this, the passive permeability of the analogs was evaluated using an artificial membrane (PAMPA), which measures permeability of compounds in the absence of transporters and efflux systems[32].
96-well BD Corning® pre-coated PAMPA plates were used following the supplier’s protocol, details in Supplementary Information.

[8] = assay type: physicochemical
[9] = Retention in hydrophobic C18 column by HPLC; conditions: Supplementary Fig 3d, logD7.4 vs tR
in vivo = conditions: male, Wistar, rat
Description: as §1

[10] = assay type: physicochemical; remark: listed apart in the source
Excerpt: Since reduced solvation of S also contributes to the lipophilicity of the thioamidated peptides, we sought to estimate the global desolvation of the macrocyclic peptides, which is affected by solvation of both N(H) and C(S). […] Thus, we evaluated the desolvation potential of the cyclic peptides by determining the distribution coefficients in heptane-ethylene glycol (logDh/e), a solvent system that provides an experimental estimate of desolvation or hydrogen bond potential[38].

in vitro [11] = conditions: both, human, plasma; remark: listed apart in the source
physchem = conditions: pH 7.4
in vitro [12] = conditions: pig, simulated intestinal fluid
Description: (§7) We next assessed the stability of the macrocyclic peptides in Simulated Intestinal Fluid (SIF)[42], comprising of pancreatin, which is a mixture of several proteases produced by the exocrine cells of the porcine pancreas.
as §4

pepsin [13] = biological target: T1, pepsin (Sus scrofa, UniProt P00791); assay: in vitro; conditions: simulated gastric fluid, pH 1.2
T1 sequence (P00791 60-385): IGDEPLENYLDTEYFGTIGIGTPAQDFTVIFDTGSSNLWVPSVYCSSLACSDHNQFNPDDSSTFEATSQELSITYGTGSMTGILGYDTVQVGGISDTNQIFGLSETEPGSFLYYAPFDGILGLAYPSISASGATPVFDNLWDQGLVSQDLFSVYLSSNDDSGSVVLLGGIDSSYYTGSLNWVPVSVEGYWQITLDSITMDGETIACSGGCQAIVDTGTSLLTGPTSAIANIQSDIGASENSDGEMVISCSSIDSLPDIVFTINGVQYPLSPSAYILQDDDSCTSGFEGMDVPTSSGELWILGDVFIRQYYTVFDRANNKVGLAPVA
Description: as §4

pepsin [14] = biological target: T1, pepsin; conditions: pH 1.2
Description: as §4

[15] = 20% CD3OD in CDCl3, % remaining after 24 hours
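For Papp A-B avg (second block) in this document: Caco-2 monolayers used 21 days after seeding in HBSS-HEPES buffer with 1% DMSO, donor and acceptor levels quantified by LC-MS/MS, TEER checked before and after.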
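For Papp A-B set 1 (second block) in this document: Caco-2 monolayers used 21 days after seeding in HBSS-HEPES buffer with 1% DMSO, donor and acceptor levels quantified by LC-MS/MS, TEER checked before and after.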
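For Papp A-B set 2 (second block) in this document: Caco-2 monolayers used 21 days after seeding in HBSS-HEPES buffer with 1% DMSO, donor and acceptor levels quantified by LC-MS/MS, TEER checked before and after.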
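For Papp B-A avg (second block) in this document: Caco-2 monolayers used 21 days after seeding in HBSS-HEPES buffer with 1% DMSO, donor and acceptor levels quantified by LC-MS/MS, TEER checked before and after.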

Description for human liver microsomes: as §4
Description for pancreatin: as §7, §4
Description for plasma proteins: as §6

AUClast p.o [1]: 120.8 ng·h/mL
time over which the peptide is detectable in plasma [1]: ≥ 8 h
Half-life of D-Leu1 amide proton (HDX) ([2]; 20% CD3OD in CDCl3): 0.167 h
Half-life of Leu2 amide proton (HDX) ([2]; 20% CD3OD in CDCl3): 8.33 h
Half-life of Leu3 amide proton (HDX) ([2]; 20% CD3OD in CDCl3): 3.27 h
Half-life of Leu6 amide proton (HDX) ([2]; 20% CD3OD in CDCl3): > 24 h
Half-life of Tyr5 amide proton (HDX) ([2]; 20% CD3OD in CDCl3): > 24 h
% intact NH, Leu6 [2, 15]: 52%
% intact NH, Tyr5 [2, 15]: 67%
microsomal CLint (in vitro [3]): 33 µL/min/mg
remaining at 5 min (in vitro [3]): 78%
remaining at 10 min (in vitro [3]): 71%
remaining at 20 min (in vitro [3]): 62%
remaining at 0.5 h (in vitro [3]): 56%
remaining at 0.75 h (in vitro [3]): 48%
remaining at 1 h (in vitro [3]): 38%
Papp A-B avg (second block) (Caco-2 cells): 3.01 ×10⁻⁶ cm/s
Papp A-B set 1 (second block) (Caco-2 cells): 4.57 ×10⁻⁶ cm/s
Papp A-B set 2 (second block) (Caco-2 cells): 1.45 ×10⁻⁶ cm/s
Papp B-A avg (second block) (Caco-2 cells): 41.8 ×10⁻⁶ cm/s
Papp B-A set 1 (second block) (Caco-2 cells): 39.7 ×10⁻⁶ cm/s
Papp B-A set 2 (second block) (Caco-2 cells): 43.9 ×10⁻⁶ cm/s
Papp A→B (in vitro [4]; Caco-2, Papp A-B + Elacridar avg): 6.8 ×10⁻⁶ cm/s
Papp A→B (in vitro [4]; Caco-2, Papp A-B avg): 3.01 ×10⁻⁶ cm/s
Papp B→A (in vitro [4]; Caco-2, Papp B-A + Elacridar avg): 8.9 ×10⁻⁶ cm/s
Papp B→A (in vitro [4]; Caco-2, Papp B-A avg): 41.8 ×10⁻⁶ cm/s
fraction unbound (in vitro [5]): 0.02
Half-life of D-Leu1 amide proton (HDX) [6]: 1 min
Half-life of Leu2 amide proton (HDX) [6]: 11.7 h
Half-life of Leu3 amide proton (HDX) [6]: 13.2 h
Half-life of Leu6 amide proton (HDX) [6]: 12 h
Half-life of Tyr5 amide proton (HDX) [6]: 18 h
Pe Avg [7]: 7.3 ×10⁻⁶ cm/s
Pe set1 [7]: 7.27 ×10⁻⁶ cm/s
Pe set2 [7]: 9.86 ×10⁻⁶ cm/s
Pe set3 [7]: 4.7 ×10⁻⁶ cm/s
Papp [7]: 7.3 ×10⁻⁶ cm/s
Half lives (SIF) Avg (pancreatin): 128 min
Half lives (SIF) set1 (pancreatin): 184 min
Half lives (SIF) set2 (pancreatin): 94 min
Half lives (SIF) set3 (pancreatin): 108 min
Half lives (human liver microsomes): 42.3
% solubility [8]: 23%
tR [9]: 14 min
AUC(0-t) (in vivo; iv): 390 ng·h/mL
Cmax (in vivo; iv): 580 ng/mL
MRT (in vivo; iv): 1.1 h
Vd (in vivo; iv): 3.2 L/kg
clearance (in vivo; iv): 42.2 mL/min/kg
bioavailability (in vivo; po): 3.1%
AUC(0-t) (in vivo; po, 10 mg/kg): 121 ng·h/mL
Cmax (in vivo; po, 10 mg/kg): 61.7 ng/mL
MRT (in vivo; po, 10 mg/kg): 2.1 h
level at 3 h (in vivo; po, 10 mg/kg): 13.1 ng/mL
logD heptane ethylene glycol [10]: 1.08
Protein binding set1 (plasma proteins): 100%
Protein binding set2 (plasma proteins): 100%
Protein binding set3 (plasma proteins): 95%
half-life (in vitro [11]): 18 h
remaining at 1 h (in vitro [11]): 92%
remaining at 3 h (in vitro [11]): 87%
remaining at 5 h (in vitro [11]): 84%
remaining at 7 h (in vitro [11]): 79%
remaining at 9 h (in vitro [11]): 63%
remaining at 12 h (in vitro [11]): 54%
remaining at 24 h (in vitro [11]): 38%
remaining at 36 h (in vitro [11]): 22%
remaining at 48 h (in vitro [11]): 25%
remaining at 60 h (in vitro [11]): 26%
remaining at 72 h (in vitro [11]): 21%
logD (physchem): 1.53
half-life (in vitro [12]): 2.1 h
remaining at 10 min (in vitro [12]): 80.9%
remaining at 0.5 h (in vitro [12]): 67.2%
remaining at 1 h (in vitro [12]): 56.5%
remaining at 2 h (in vitro [12]): 48.1%
remaining at 4 h (in vitro [12]): 42.9%
remaining at 8 h (in vitro [12]): 31.7%
remaining at 12 h (in vitro [12]): 24.6%
remaining at 24 h (in vitro [12]): 17.2%
half-life (pepsin [13]): 1.3 h
remaining at 5 min (pepsin [13]): 78%
remaining at 10 min (pepsin [13]): 73%
remaining at 20 min (pepsin [13]): 67%
remaining at 0.5 h (pepsin [13]): 61%
remaining at 1 h (pepsin [13]): 54%
remaining at 2 h (pepsin [13]): 44%
remaining at 4 h (pepsin [13]): 34%
remaining at 8 h (pepsin [13]): 24%
remaining at 12 h (pepsin [13]): 15%
remaining at 24 h (pepsin [13]): 9%
SMILES: CC(C)C[C@@H]1NC(=O)[C@@H](CC(C)C)NC(=S)[C@H](CC(C)C)NC(=O)[C@H](Cc2ccc(O)cc2)NC(=O)[C@H]2CCCN2C(=O)[C@H](CC(C)C)NC1=O [10f] (cyclo(LL[dP]Y[X3]))

Fold Change of AUClast p.o [1]: 29
microsomal CLint (in vitro [3]): 49 µL/min/mg
remaining at 2 min (in vitro [3]): 99%
remaining at 10 min (in vitro [3]): 94%
remaining at 20 min (in vitro [3]): 65%
remaining at 0.5 h (in vitro [3]): 49%
remaining at 0.75 h (in vitro [3]): 27%
remaining at 1 h (in vitro [3]): 13%
fraction unbound (in vitro [5]): 0.3
Papp [7]: 9.07 ×10⁻⁶ cm/s
Half lives (human liver microsomes): 28.7
AUC(0-t) (in vivo; iv): 212 ng·h/mL
Cmax (in vivo; iv): 435 ng/mL
MRT (in vivo; iv): 0.4 h
Vd (in vivo; iv): 2.3 L/kg
clearance (in vivo; iv): 79.5 mL/min/kg
bioavailability (in vivo; po): 1.2%
AUC(0-t) (in vivo; po, 10 mg/kg): 25.9 ng·h/mL
Cmax (in vivo; po, 10 mg/kg): 13.1 ng/mL
MRT (in vivo; po, 10 mg/kg): 1.3 h
level at 3 h (in vivo; po, 10 mg/kg): 3.2 ng/mL
Half lives (SGF) Avg (pepsin [14]): 65.5 min
Half lives (SGF) set1 (pepsin [14]): 52 min
half-life (in vitro [11]): 18 h
remaining at 2 h (in vitro [11]): 89%
remaining at 4 h (in vitro [11]): 77%
remaining at 8 h (in vitro [11]): 68%
remaining at 16 h (in vitro [11]): 56%
remaining at 24 h (in vitro [11]): 30%
remaining at 48 h (in vitro [11]): 13%
remaining at 72 h (in vitro [11]): 3.27%
logD (physchem): 1.46
half-life (in vitro [12]): 0.933 h
remaining at 10 min (in vitro [12]): 71%
remaining at 0.5 h (in vitro [12]): 63%
remaining at 1 h (in vitro [12]): 47%
remaining at 2 h (in vitro [12]): 27%
remaining at 4 h (in vitro [12]): 16%
remaining at 8 h (in vitro [12]): 2.66%
remaining at 12 h (in vitro [12]): 1%
remaining at 2 min (pepsin [13]): 97%
remaining at 10 min (pepsin [13]): 89%
remaining at 20 min (pepsin [13]): 79%
remaining at 0.5 h (pepsin [13]): 67%
remaining at 1 h (pepsin [13]): 57%
remaining at 2 h (pepsin [13]): 26%
remaining at 4 h (pepsin [13]): 16%
remaining at 8 h (pepsin [13]): 8%
remaining at 12 h (pepsin [13]): 3%
SMILES: CC(C)C[C@@H]1NC(=O)[C@H](Cc2ccc(O)cc2)NC(=O)[C@H]2CCCN2C(=O)[C@H](CC(C)C)NC(=O)[C@H](CC(C)C)N(C)C(=O)[C@@H](CC(C)C)NC1=O [10h] (cyclo(L[dL][NMeL]L[dP]Y))
